For test [1], the system named is Pseudomonas aeruginosa. Nature of the test: Antimicrobial activity against Pseudomonas aeruginosa 166301 expressing beta-lactamase VIM-16 obtained from urine of patient by agar dilution method. It is filed as functional.
Test [2] deals with Escherichia coli. Nature of the test: Antimicrobial activity against Escherichia coli DH5alpha harboring beta-lactamase VIM-15 by agar dilution method. Particulars: DH5[alpha]. In kind it is functional.
In test [3] the test system is Escherichia coli. The test is described as follows: Antimicrobial activity against Escherichia coli DH5alpha harboring beta-lactamase VIM-16 by agar dilution method. It is filed as functional. The note with it: DH5[alpha].
Test [4] relates to Escherichia coli. The test is described as follows: Antimicrobial activity against Escherichia coli DH5alpha harboring beta-lactamase VIM-2 by agar dilution method. In kind it is functional. Particulars: DH5[alpha].
Test [5] relates to Escherichia coli. Nature of the test: Antimicrobial activity against Escherichia coli DH5alpha by agar dilution method. In kind it is functional. The note with it: DH5[alpha].
Test [6] deals with Pseudomonas aeruginosa. The test is described as follows: Activity of Pseudomonas aeruginosa 9551 beta-lactamase VIM-15.
The subject of test [7] is Pseudomonas aeruginosa. The test is described as follows: Ratio of Kcat to Km for Pseudomonas aeruginosa 9551 beta-lactamase VIM-15.
The subject of test [8] is Pseudomonas aeruginosa. The test is described as follows: Activity of Pseudomonas aeruginosa 166301 beta-lactamase VIM-16.
In test [9] the test system is Pseudomonas aeruginosa. The test is described as follows: Ratio of Kcat to Km for Pseudomonas aeruginosa 166301 beta-lactamase VIM-16.
Test [10] has as its system Pseudomonas aeruginosa. The test is described as follows: Activity of Pseudomonas aeruginosa 9551 beta-lactamase VIM-15 relative to cephaloridine.
In test [11] the test system is Pseudomonas aeruginosa. Nature of the test: Activity of Pseudomonas aeruginosa 166301 beta-lactamase VIM-16 relative to cephaloridine.
Test [12] has as its system Pseudomonas aeruginosa. Nature of the test: Ratio of Kcat to Km for Pseudomonas aeruginosa 166301 beta-lactamase VIM-16 relative to cephaloridine.
Test [13] relates to Pseudomonas aeruginosa. Nature of the test: microbe, parasite or virus in culture. The note with it: Pseudomonas aeruginosa, 9551, Urine.
Test [14] relates to Pseudomonas aeruginosa. The test is described as follows: Ratio of Kcat to Km for Pseudomonas aeruginosa 9551 beta-lactamase VIM-15 relative to cephaloridine.
Test [15] concerns the target Beta-lactamase VIM-2 (Pseudomonas aeruginosa) (UniProt Q9K2N0). The test is described as follows: Activity of Pseudomonas aeruginosa COL-1 beta-lactamase VIM-2 relative to cephaloridine.
Test [16] has the same target. The test is described as follows: Ratio of Kcat to Km for Pseudomonas aeruginosa COL-1 beta-lactamase VIM-2 relative to cephaloridine.
For test [17], the system named is Pseudomonas aeruginosa. Nature of the test: Antimicrobial activity against Pseudomonas aeruginosa 9551 expressing beta-lactamase VIM-15 obtained from urine of patient by agar dilution method in presence of beta-lactamase inhibitor Tazobactam. Particulars: Pseudomonas aeruginosa, 9551, Urine. It is filed as functional.
The test system of test [18] is Pseudomonas aeruginosa. The test is described as follows: Antimicrobial activity against Pseudomonas aeruginosa 166301 expressing beta-lactamase VIM-16 obtained from urine of patient by agar dilution method in presence of beta-lactamase inhibitor Tazobactam. In kind it is functional. The note with it: Pseudomonas aeruginosa, 166301, Urine.
For test [19], the system named is Escherichia coli. Nature of the test: Antimicrobial activity against Escherichia coli DH5alpha harboring beta-lactamase VIM-15 by agar dilution method in presence of beta-lactamase inhibitor Tazobactam. It is filed as functional. Particulars: DH5[alpha].
Test [20] has as its system Escherichia coli. Nature of the test: Antimicrobial activity against Escherichia coli DH5alpha harboring beta-lactamase VIM-16 by agar dilution method in presence of beta-lactamase inhibitor Tazobactam. It is filed as functional. Particulars: DH5[alpha].
In test [21] the test system is Escherichia coli. Nature of the test: Antimicrobial activity against Escherichia coli DH5alpha harboring beta-lactamase VIM-2 by agar dilution method in presence of beta-lactamase inhibitor Tazobactam. In kind it is functional. The note with it: DH5[alpha].
Test [22] has as its system Escherichia coli. Nature of the test: Antimicrobial activity against Escherichia coli DH5alpha by agar dilution method in presence of beta-lactamase inhibitor Tazobactam. It is filed as functional. The note with it: DH5[alpha].
Where [23] appears, read: Pseudomonas aeruginosa, 166301, Urine.

≈ marks a conversion by molar mass, not a printed value. Bounds are passed on as bounds.

Take `CO/N=C(\C(=O)N[C@@H]1C(=O)N2C(C(=O)[O-])=C(C[N+]3(C)CCCC3)CS[C@H]12)c1csc(N)n1`: the MIC against Pseudomonas aeruginosa [1] (setting [23]) was determined as 32 µg/mL (≈ 66.6 µM); against Escherichia coli [2], 0.03 µg/mL (≈ 0.0624 µM); against Escherichia coli [3], 0.03 µg/mL (≈ 0.0624 µM); with Escherichia coli [4], 0.03 µg/mL (≈ 0.0624 µM); with Escherichia coli [5], 0.016 µg/mL (≈ 0.0333 µM); against Pseudomonas aeruginosa [13] it was 32 µg/mL (≈ 66.6 µM). In addition, the Km with Pseudomonas aeruginosa [6] was 130 µM; in the test with Pseudomonas aeruginosa [8] it was 210 µM. For the same compound, the catalytic constant (kcat) with Pseudomonas aeruginosa [6] was found to be 9.5 s⁻¹; with Pseudomonas aeruginosa [8], 0.31 s⁻¹. The kcat/Km was determined as 76000 M⁻¹ s⁻¹ in the test with Pseudomonas aeruginosa [7] and 1500 M⁻¹ s⁻¹ in the test on Pseudomonas aeruginosa [9]. The figures for the Activity in the test with Pseudomonas aeruginosa [10], in the test on Pseudomonas aeruginosa [11] and in the test on Pseudomonas aeruginosa [12] were 5%, 0.35% and 2.3%, respectively.
On to `CC1(C)S[C@@H]2[C@H](NC(=O)Cc3ccccc3)C(=O)N2[C@H]1C(=O)O`, for which the Activity with Pseudomonas aeruginosa [12] is 800%.
On to `O=C(Cc1cccs1)N[C@@H]1C(=O)N2C(C(=O)[O-])=C(C[n+]3ccccc3)CS[C@H]12`, for which the Km was 83 µM in the test with Pseudomonas aeruginosa [6] and 1400 µM with Pseudomonas aeruginosa [8]. In addition, the kcat worked out at 190 s⁻¹ in the test on Pseudomonas aeruginosa [6] and 89 s⁻¹ in the test on Pseudomonas aeruginosa [8]. In addition, the kcat/Km in the test with Pseudomonas aeruginosa [7] came to 2.3e+06 M⁻¹ s⁻¹; with Pseudomonas aeruginosa [9], 64000 M⁻¹ s⁻¹. The Activity (in the test on Pseudomonas aeruginosa [10]; with Pseudomonas aeruginosa [14]; with Pseudomonas aeruginosa [11]; with Pseudomonas aeruginosa [12]; in [15]; in test [16]) was 100% each time.
In the case of `CC1(C)S[C@@H]2[C@H](NC(=O)[C@H](N)c3ccc(O)cc3)C(=O)N2[C@H]1C(=O)O` [AMOXICILLIN], the MIC in the test with Pseudomonas aeruginosa [1] (setting [23]) is > 512 µg/mL; with Escherichia coli [2] it was 256 µg/mL (≈ 701 µM); with Escherichia coli [3], 256 µg/mL (≈ 701 µM); against Escherichia coli [4], 256 µg/mL (≈ 701 µM); in the test with Escherichia coli [5], 4 µg/mL (≈ 10.9 µM); against Pseudomonas aeruginosa [13], 512 µg/mL (≈ 1400 µM).
As for `C[C@H]1[C@H](NC(=O)/C(=N\OC(C)(C)C(=O)O)c2csc(N)n2)C(=O)N1S(=O)(=O)O` [AZTREONAM], the MIC worked out at 32 µg/mL (≈ 73.5 µM) with Pseudomonas aeruginosa [1] (setting [23]); 0.016 µg/mL (≈ 0.0367 µM) against Escherichia coli [2]; 0.016 µg/mL (≈ 0.0367 µM) against Escherichia coli [3]; 0.016 µg/mL (≈ 0.0367 µM) against Escherichia coli [4]; 0.016 µg/mL (≈ 0.0367 µM) with Escherichia coli [5]; 16 µg/mL (≈ 36.7 µM) against Pseudomonas aeruginosa [13]. The kcat in the test on Pseudomonas aeruginosa [6] is < 0.031 s⁻¹; in the test with Pseudomonas aeruginosa [8] it was < 0.11 s⁻¹. In addition, the results for the Activity in the test on Pseudomonas aeruginosa [10] and with Pseudomonas aeruginosa [11] were < 0.016% and < 0.12%, respectively.
On to `CO/N=C(\C(=O)N[C@@H]1C(=O)N2C(C(=O)O)=C(COC(C)=O)CS[C@H]12)c1csc(N)n1` [CEFOTAXIME], for which the MIC against Pseudomonas aeruginosa [1] (setting [23]) was > 256 µg/mL; against Escherichia coli [2], 4 µg/mL (≈ 8.78 µM); in the test on Escherichia coli [3], 2 µg/mL (≈ 4.39 µM); against Escherichia coli [4], 1 µg/mL (≈ 2.2 µM); in the test on Escherichia coli [5], 0.03 µg/mL (≈ 0.0659 µM); with Pseudomonas aeruginosa [13], > 256 µg/mL. The Km was 13 µM with Pseudomonas aeruginosa [6] and 240 µM in the test on Pseudomonas aeruginosa [8]. Besides, the catalytic constant (kcat) came to 90 s⁻¹ with Pseudomonas aeruginosa [6] and 81 s⁻¹ in the test on Pseudomonas aeruginosa [8]. Also, the kcat/Km in the test with Pseudomonas aeruginosa [7] turned out to be 6.9e+06 M⁻¹ s⁻¹; in the test with Pseudomonas aeruginosa [9] it was 340000 M⁻¹ s⁻¹. Also, the Activity turned out to be 47% in the test with Pseudomonas aeruginosa [10], 300% in the test on Pseudomonas aeruginosa [14], 91% with Pseudomonas aeruginosa [11] and 530% in the test on Pseudomonas aeruginosa [12].
On to `CC(C)(O/N=C(\C(=O)N[C@@H]1C(=O)N2C(C(=O)[O-])=C(C[n+]3ccccc3)CS[C@H]12)c1csc(N)n1)C(=O)O` [CEFTAZIDIME], for which the MIC is 64 µg/mL (≈ 117 µM) against Pseudomonas aeruginosa [1] (setting [23]); 0.5 µg/mL (≈ 0.915 µM) in the test on Escherichia coli [2]; 0.5 µg/mL (≈ 0.915 µM) against Escherichia coli [3]; 1 µg/mL (≈ 1.83 µM) against Escherichia coli [4]; 0.13 µg/mL (≈ 0.238 µM) in the test on Escherichia coli [5]; 64 µg/mL (≈ 117 µM) against Pseudomonas aeruginosa [13]. Also, the Km is 37 µM with Pseudomonas aeruginosa [6] and 150 µM with Pseudomonas aeruginosa [8]. The kcat with Pseudomonas aeruginosa [6] worked out at 1 s⁻¹; with Pseudomonas aeruginosa [8], 0.22 s⁻¹. The kcat/Km with Pseudomonas aeruginosa [7] came out at 27000 M⁻¹ s⁻¹; with Pseudomonas aeruginosa [9], 1400 M⁻¹ s⁻¹. Moreover, the Activity was found to be 0.53% in the test on Pseudomonas aeruginosa [10], 1.2% in the test with Pseudomonas aeruginosa [14], 0.25% in the test with Pseudomonas aeruginosa [11] and 2.2% with Pseudomonas aeruginosa [12].
As to `C[C@@H](O)[C@H]1C(=O)N2C(C(=O)O)=C(SCCNC=N)C[C@H]12` [IMIPENEM ANHYDROUS], the MIC is > 128 µg/mL against Pseudomonas aeruginosa [1] (setting [23]), 0.5 µg/mL (≈ 1.67 µM) against Escherichia coli [2] and > 128 µg/mL with Pseudomonas aeruginosa [13]. Also, the Km with Pseudomonas aeruginosa [6] turned out to be 7.3 µM; with Pseudomonas aeruginosa [8], 89 µM. Further, the catalytic constant (kcat) came to 61 s⁻¹ in the test with Pseudomonas aeruginosa [6] and 45 s⁻¹ in the test on Pseudomonas aeruginosa [8]. The kcat/Km in the test with Pseudomonas aeruginosa [7] came out at 8.4e+06 M⁻¹ s⁻¹; in the test on Pseudomonas aeruginosa [9], 510000 M⁻¹ s⁻¹. Further, the Activity with Pseudomonas aeruginosa [10] turned out to be 32%; with Pseudomonas aeruginosa [14] it was 370%; with Pseudomonas aeruginosa [11], 51%; in the test on Pseudomonas aeruginosa [12], 800%; in [15] it was 17%; in test [16], 380%.
Regarding `C[C@@H](O)[C@H]1C(=O)N2C(C(=O)O)=C(S[C@@H]3CN[C@H](C(=O)N(C)C)C3)[C@H](C)[C@H]12` [MEROPENEM], the MIC in the test with Pseudomonas aeruginosa [1] (setting [23]) was > 128 µg/mL; against Escherichia coli [2], 0.03 µg/mL (≈ 0.0782 µM); against Escherichia coli [3], 0.03 µg/mL (≈ 0.0782 µM); in the test with Escherichia coli [4] it was 0.03 µg/mL (≈ 0.0782 µM); against Escherichia coli [5], 0.016 µg/mL (≈ 0.0417 µM); in the test with Pseudomonas aeruginosa [13] it was 128 µg/mL (≈ 334 µM). Besides, the values for the Activity (in the test with Pseudomonas aeruginosa [12]; in test [15]; in test [16]) were 110%, 1.8% and 62%, respectively.
As to `CCN1CCN(C(=O)N[C@@H](C(=O)N[C@@H]2C(=O)N3[C@@H]2SC(C)(C)[C@@H]3C(=O)O)c2ccccc2)C(=O)C1=O` [PIPERACILLIN], the MIC in the test with Pseudomonas aeruginosa [17] amounted to 128 µg/mL; in the test on Pseudomonas aeruginosa [18], 128 µg/mL; with Escherichia coli [19], 8 µg/mL; in the test on Escherichia coli [20] it was 8 µg/mL; in the test on Escherichia coli [21], 4 µg/mL; in the test on Escherichia coli [22], 1 µg/mL.
As to `NC[C@H]1O[C@H](O[C@H]2[C@H](O)[C@@H](O[C@H]3O[C@H](CO)[C@@H](O)[C@H](N)[C@H]3O)[C@H](N)C[C@@H]2N)[C@H](N)C[C@@H]1O` [TOBRAMYCIN], the MIC in the test on Pseudomonas aeruginosa [1] (setting [23]) is > 128 µg/mL; against Escherichia coli [2], 0.25 µg/mL (≈ 0.535 µM); with Escherichia coli [3], 0.25 µg/mL (≈ 0.535 µM); in the test on Escherichia coli [4], 0.25 µg/mL (≈ 0.535 µM); in the test with Escherichia coli [5], 0.25 µg/mL (≈ 0.535 µM); in the test with Pseudomonas aeruginosa [13], 8 µg/mL (≈ 17.1 µM).
Consider GENTAMICIN, for which the MIC against Pseudomonas aeruginosa [1] was > 128 µg/mL; with Escherichia coli [2], 0.13 µg/mL; with Escherichia coli [3] it was 0.13 µg/mL; against Escherichia coli [4], 0.13 µg/mL; in the test on Escherichia coli [5], 0.13 µg/mL.

(Values after ChEMBL document CHEMBL1275469, “VIM-15 and VIM-16, two new VIM-2-like metallo-beta-lactamases in Pseudomonas aeruginosa isolates from Bulgaria and Germany” (2008).)
